Test results from PMC5441875 (eLife, 2017).
“And” between values parts separate entries of the source, which are not always exact repeats. Equal entries are not always repeated. Where two headings read alike, the source gives them in different places.

How the values were obtained:
[1] = system: GluN1-P532PSAA/GluN2A receptors; assay: Potentiation by the positive allosteric modulator GNE-6901, whole-cell patch-clamp; format: cell-based, rat
Description: (§1) Receptor functionality and light-sensitivity were assessed in patch-clamp recordings of lifted whole cells 24–72 hr post transfection. Positively transfected cells were visualized by GFP-fluorescence. […] The osmolarity was 270–290 mOsm. The cells were continuously perfused with a Ringer solution containing (in mM): 140 NaCl, 2.8 KCl, 1 CaCl2, 0.01 DTPA, 10 HEPES and five sucrose (pH 7.3 with NaOH). The osmolarity was 290 mOsm. DTPA was added to prevent tonic inhibition of NMDARs by ambient zinc ([Paoletti et al., 1997]). Currents were recorded using an Axopatch 200B amplifier and a Digidata 1550A interface (Molecular Devices), sampled at 10–20 kHz, and low-pass filtered at 2–5 kHz. The cells were voltage-clamped at −60 mV. pClamp 10.5 (Molecular Devices) was used to acquire the data. All recordings were performed at room temperature.
Agonists or other pharmacological substances were applied using a multi-barrel rapid solution exchanger system (RSC 200, Bio-Logic). […] The agonist deactivation kinetics were assessed by including the converse co-agonist to the control solution. […]
(§2) Computer-controlled light pulses during electrophysiological recordings were provided from sensitive high power LEDs (Prizmatix). […] The LED port was directly coupled via a microscope adaptor to the fluorescence port of an inverted DIAPHOT 300 Nikon microscope. […]

[2] = molecular target: T1, WT GluN1/GluN2A receptors (Rattus norvegicus, UniProt P35439+Q00959); assay: as above; format: cell-based; parameters: expressed in transfected cells; host or cells: HEK-293 cells (ATCC), PEI transfection, pcDNA3-based vectors
T1 sequence (Q00959 23-1464, other chains not shown): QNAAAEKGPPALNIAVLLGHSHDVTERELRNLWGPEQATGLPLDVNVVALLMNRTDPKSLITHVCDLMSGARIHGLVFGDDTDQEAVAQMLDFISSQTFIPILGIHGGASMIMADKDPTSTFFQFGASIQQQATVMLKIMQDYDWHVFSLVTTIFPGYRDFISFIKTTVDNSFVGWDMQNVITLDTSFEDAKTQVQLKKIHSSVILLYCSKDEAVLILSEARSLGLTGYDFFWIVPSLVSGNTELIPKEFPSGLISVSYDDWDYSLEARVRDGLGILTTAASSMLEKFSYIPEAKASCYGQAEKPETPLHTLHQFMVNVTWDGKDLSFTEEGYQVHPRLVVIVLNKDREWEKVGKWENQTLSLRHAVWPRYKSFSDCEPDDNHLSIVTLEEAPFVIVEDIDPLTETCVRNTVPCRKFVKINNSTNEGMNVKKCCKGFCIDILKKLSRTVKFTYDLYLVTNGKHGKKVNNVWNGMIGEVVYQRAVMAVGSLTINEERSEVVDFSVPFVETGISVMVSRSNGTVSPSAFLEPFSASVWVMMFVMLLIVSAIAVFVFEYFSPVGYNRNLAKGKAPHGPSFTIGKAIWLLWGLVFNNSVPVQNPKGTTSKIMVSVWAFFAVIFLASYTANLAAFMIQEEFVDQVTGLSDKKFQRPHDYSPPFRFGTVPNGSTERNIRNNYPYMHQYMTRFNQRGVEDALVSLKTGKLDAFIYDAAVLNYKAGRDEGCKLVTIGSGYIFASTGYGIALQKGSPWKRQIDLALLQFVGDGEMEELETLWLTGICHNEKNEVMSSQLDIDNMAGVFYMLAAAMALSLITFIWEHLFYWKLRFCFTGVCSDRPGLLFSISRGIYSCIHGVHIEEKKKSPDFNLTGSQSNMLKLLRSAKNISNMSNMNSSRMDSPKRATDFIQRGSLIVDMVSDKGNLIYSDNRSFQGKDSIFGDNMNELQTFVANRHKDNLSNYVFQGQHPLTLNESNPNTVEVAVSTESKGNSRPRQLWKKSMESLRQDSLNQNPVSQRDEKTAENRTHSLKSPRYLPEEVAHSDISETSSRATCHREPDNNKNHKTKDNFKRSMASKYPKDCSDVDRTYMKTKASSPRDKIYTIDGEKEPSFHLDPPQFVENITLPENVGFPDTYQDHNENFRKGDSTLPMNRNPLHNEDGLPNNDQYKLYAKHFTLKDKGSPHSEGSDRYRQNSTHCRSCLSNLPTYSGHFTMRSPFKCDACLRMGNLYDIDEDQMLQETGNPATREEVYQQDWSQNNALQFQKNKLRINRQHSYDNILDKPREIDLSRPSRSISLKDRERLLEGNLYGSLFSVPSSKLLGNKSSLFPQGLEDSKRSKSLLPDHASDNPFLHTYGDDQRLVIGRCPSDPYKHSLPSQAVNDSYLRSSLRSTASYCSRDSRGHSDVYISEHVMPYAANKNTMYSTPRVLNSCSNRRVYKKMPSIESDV
Description: as §1
(§3) Agonists or other pharmacological substances were applied using a multi-barrel rapid solution exchanger system (RSC 200, Bio-Logic). […] The agonist deactivation kinetics were assessed by including the converse co-agonist to the control solution. For Mg^2+-DRCs, the concentration of DTPA, which has orders of magnitude higher affinity for Zn^2+ than Mg^2+ ([Paoletti et al., 1997]), was reduced to 1 µM to avoid excessive Mg^2+ chelation, while maintaining depletion of ambient zinc (estimated in the few hundreds of nM). Accordingly, Mg^2+ concentrations reported in the Mg^2+-DRC were not corrected and correspond to the nominal concentrations of added Mg^2+. MK-801 was applied at 1 μM to assure full inhibition of WT NMDAR-mediated currents. The positive allosteric modulator (PAM) GNE-6901 (obtained from Genentech, South San Francisco, USA) was used at a final concentration of 30 μM ([Hackos et al., 2016]).
as §2

[3] = system: GluN1-P532PSAA/GluN2A receptors; assay: MK-801 open channel block kinetics, whole-cell patch-clamp; format: cell-based, rat
Description: as §1, §3
(§4) Computer-controlled light pulses during electrophysiological recordings were provided from sensitive high power LEDs (Prizmatix). The three following LEDs were used: Mic-LED-365 (UV, 200 mW), UHP-Mic-LED-460 (blue, 2W) and UHP-Mic-LED-520 (green, 900 mW). The LED port was directly coupled via a microscope adaptor to the fluorescence port of an inverted DIAPHOT 300 Nikon microscope. The output beams of the three Mic-LEDs were joined by a dichroic beam combiner module and the resulting light was applied to the center of the recording dish through a 10X objective (Leitz Wetzlar). The light intensity of all three LEDs was set to 100%, unless otherwise noted.
(§5) Current traces obtained in electrophysiological recordings were transferred to Igor Pro (version 6.3) or Clampfit (version 10.5) for display and analysis. The kinetics of photoinactivation and photopotentiation were obtained by fitting currents with a single exponential function as follows: Y = A*exp(-t/τ) + C, with A as the initial current amplitude, Tau (τ) the decay time constant, and C the steady-state level. The inhibition by MK-801 was also fit with a monoexponential function. […] Accordingly, and for comparative purposes, only single exponential fits were used when studying MK-801 inhibition. Agonist DRCs were fit with the following Hill equation: Irel = 1/(1 + (EC50 / [ago])^nH), with EC50 and the Hill coefficient (nH) as free parameters. For Mg^2+-DRCs the following equation was used: Irel = 100*(1-(a/(1+[IC50]/[Mg^2+)^nH,)), where a is the maximal current inhibition by Mg^2+. IC50, a, and the Hill coefficient (nH) were set as free parameters.

[4] = system: GluN1-F654PSAA/GluN2A receptors; assay: MK-801 open channel block (kinetics and extent), whole-cell patch-clamp; format: cell-based, rat
Description: as §1, §3, §4, §5

[5] = system: GluN1-Y647PSAA/GluN2A receptors; assay: as above; format: cell-based, rat; settings: 1 µM MK-801, Y647PSAA mutant
Description: as §1, §3, §4, §5

[6] = molecular target: T1, WT GluN1/GluN2A receptors; assay: as above; format: cell-based; parameters: expressed in transfected cells; host or cells: HEK-293 cells (ATCC), PEI transfection, pcDNA3-based vectors; settings: 1 µM MK-801, WT
Description: as §1, §3, §4, §5

[7] = system: GluN1-F654PSAA/GluN2A receptors; assay: Magnesium dose-response curves (Mg2+-DRCs), whole-cell patch-clamp; format: cell-based, rat; settings: F654PSAA mutant
Description: as §1, §3, §4, §5

[8] = system: GluN1-Y647PSAA/GluN2A receptors; assay: as above; format: cell-based, rat; settings: Y647PSAA mutant
Description: as §1, §3, §4, §5

[9] = molecular target: T1, WT GluN1/GluN2A receptors; assay: as above; format: cell-based; parameters: expressed in transfected cells; host or cells: HEK-293 cells (ATCC), PEI transfection, pcDNA3-based vectors
Description: as §1, §3, §2

[10] = UV/Vis spectra of the free PSAA photoisomers; format: physicochemical; settings: isopropanol, 5 min irradiation at 460 nm
Description: The UV/Vis spectra of the free PSAA (100 μM) were measured using a UVIKON 922 spectrophotometer (Kontron Instruments) in 1 x 1 × 4 cm quartz cuvettes. The spectra were measured at two different conditions: (i) with PSAA in the extracellular (Ringer) solution to be as close as possible to the recording conditions, and (ii) in isopropanol to mimic a hydrophobic environment (since PSAA is buried in the protein) ([Ye et al., 2009]). To induce the different photoisomers, the dissolved PSAA was directly irradiated in the cuvette at 365 nm (30 mW), 460 nm (241 mW), and 525 nm (35 mW) using a Cool LED pE-4000 illumination system. The UV spectra of the pure trans-isomer were recorded upon storage in the dark.

[11] = molecular target: GluN1-P532PSAA/GluN2A receptors; settings: PSAA-mutant
Description: as §1, §3
Computer-controlled light pulses during electrophysiological recordings were provided from sensitive high power LEDs (Prizmatix).

[12] = system: GluN1-P532PSAA/GluN2A receptors; settings: PSAA-mutant; for τdeact,UV (example trace) / τdeact,BLUE (example trace): single example trace; for τdeact,BLUE (example trace): blue light
Description: as §1, §3, §4
The weighted deactivation time constants were calculated with: τw =( Af/(Af+As))*τf + (As /(Af + As))*τs.

[13] = system: GluN1-P532PSAA/GluN2A receptors; assay: UV-induced photoinhibition of currents in the presence of ligands (glycine concentrations, competitive antagonists, PAM); format: cell-based, rat
Description: as §1, §3, §4

[14] = 1 µM MK-801, F654PSAA mutant, UV
[15] = 1 µM MK-801, F654PSAA mutant, dark
[16] = blue light, read-out: IC50 BLUE
[17] = read-out: EC50,BLUE, blue light (460 nm)
[18] = read-out: EC50,DARK, dark, 100 μM of the respective co-agonist
[19] = read-out: EC50,UV, UV light (365 nm)

For `Cc1sc2nc(COc3ccc(F)cc3)cc(=O)n2c1[C@@H]1C[C@H]1CO` [GNE-6901], the “mean fold-potentiation by PAM” value ([1]; GNE-6901 30 µM, PSAA mutant, cis and trans pooled) was 0.9 ± 0.04 fold, the “effect of PAM application” value ([1]; GluN1-P532PSAA mutant receptors) was “entirely unaffected” and the “mean fold-potentiation by PAM” value ([2]; GNE-6901 30 µM, WT) was 2.3 ± 0.3 fold. For the same compound, the “fold potentiation (example trace)” value ([2]; GNE-6901 30 µM, WT, example trace) was 2.3 fold and the “effect of PAM application” value ([2]; WT receptors) was “strongly potentiated”.
With `C[C@]12N[C@H](Cc3ccccc31)c1ccccc12` [MK-801] the “time constant of MK-801 inhibition τUV (example trace)” value ([3]; 1 µM MK-801, P532PSAA mutant, UV, example) was 3200 ms, the “single-exponential time constant of MK-801 inhibition τUV” value ([3]; 1 µM MK-801, P532PSAA mutant, UV, mean) was 1820 ± 290 ms and the “time constant of MK-801 inhibition τDARK (example trace)” value ([3]; 1 µM MK-801, P532PSAA mutant, dark, example) was 470 ms. For the same compound, the “single-exponential time constant of MK-801 inhibition τDARK” value ([3]; 1 µM MK-801, P532PSAA mutant, dark, mean) was 940 ± 160 ms, the “fold slower MK-801 blocking kinetics” value ([3]; P532PSAA mutant in dark state vs WT) was ~ 1.3 fold and the “fold slower MK-801 inhibition rates” value ([3]; P532PSAA mutant under UV exposure) was ~ 2 fold. The “mean extent of block produced by MK-801, BlockUV” value (shortened to “mean extent … BlockUV”) [4, 14] was 97 ± 1%, the “time constant of MK-801 inhibition (example trace)” value [4, 14] was 1000 ms and the “single-exponential time constant of MK-801 inhibition τUV” value ([4]; 1 µM MK-801, F654PSAA mutant, UV, mean) was 730 ± 70 ms. The “mean extent of block produced by MK-801, BlockDARK” value (“mean extent … BlockDARK” for short) [4, 15] was 90 ± 3%, the “time constant of MK-801 inhibition (example trace)” value [4, 15] was 3970 ms and the “single-exponential time constant of MK-801 inhibition τDARK” value ([4]; 1 µM MK-801, F654PSAA mutant, dark, mean) was 3070 ± 560 ms. The “degree of MK-801 block” value ([4]; F654PSAA receptors, across light conditions) was ≥ 90%, the “mean extent … BlockUV” value ([5]; UV) was 86 ± 3% and > 85% and the “time constant of MK-801 inhibition (example trace)” value ([5]; UV) was 3300 ms. For the same compound, the “single-exponential time constant of MK-801 inhibition τUV” value ([5]; UV, mean) was 4150 ± 910 ms, the “mean extent … BlockDARK” value ([5]; dark (trans)) was 69 ± 5% and 69% and the “time constant of MK-801 inhibition (example trace)” value ([5]; dark) was 4400 ms. For the same compound, the “single-exponential time constant of MK-801 inhibition τDARK” value ([5]; dark, mean) was 5070 ± 580 ms, the “mean extent … BlockUV” value ([6]; UV) was 98 ± 1% and the “time constant of MK-801 inhibition (example trace)” value ([6]; UV) was 700 ms. For the same compound, the “single-exponential time constant of MK-801 inhibition τUV” value ([6]; UV, mean) was 620 ± 50 ms, the “single-exponential time constant of MK-801 inhibition τBLUE” value ([6]; blue, mean) was 610 ± 90 ms and the “mean extent … BlockDARK” value ([6]; dark) was 97 ± 1%. The “time constant of MK-801 inhibition (example trace)” value ([6]; dark) was 600 ms and the “single-exponential time constant of MK-801 inhibition τDARK” value ([6]; dark, mean) was 690 ± 140 ms.
`[Mg+2]` [Mg^2+] gave an IC50 ([7]; UV light, read-out: IC50 UV) of 33.3 µM, an IC50 [7, 16] of 34.3 µM and an IC50 ([7]; dark, read-out: IC50 DARK) of 30 µM. For the same compound, the IC50 ([8]; UV light, read-out: IC50,UV) was 41.5 µM, the IC50 ([8]; blue light, read-out: IC50,BLUE) was 102 µM and the “fold increase in IC50 under dark or blue light” value ([8]; dark or blue vs UV) was 2.5 fold. The IC50 ([8]; dark, read-out: IC50,DARK) was 103 µM, the IC50 ([9]; UV light, read-out: IC50 UV) was 35.8 µM and the IC50 [9, 16] was 32.6 µM. For the same compound, the IC50 ([9]; dark, nominal Mg2+ concentrations, read-out: IC50 DARK) was 34.6 µM.
Work on `C=Cc1cccc(/N=N/c2ccc(C[C@H](N)C(=O)O)cc2)c1` [PSAA] yielded a cis/trans ratio [10] of 74%.
With `N[C@@H](CCC(=O)O)C(=O)O` [glutamate] the EC50 [11, 17] was 13.3 µM, the EC50 [11, 18] was 14.6 µM and the EC50 [11, 19] was 17.1 µM. For the same compound, the “τdeact,UV (example trace)” value ([12]; UV) was 77.7 ms, the “τdeact,BLUE (example trace)” value [12] was 79.2 ms and the “mean weighted deactivation time constant τdeact,DARK” value [12] was 113 ± 36 ms.
Work on `NCC(=O)O` [glycine] yielded an EC50 [11, 17] of 1.5 µM, an EC50 [11, 18] of 1.5 µM and an EC50 [11, 19] of 10.5 µM. The “mean photoinhibition degree Inh1” value ([13]; 1 μM glycine) was ~95%, the “mean photoinhibition degree Inh10” value ([13]; 10 μM glycine) was 76.1 ± 2% and the “mean photoinhibition degree Inh100” value ([13]; 100 μM glycine) was 49.9 ± 2.5%. For the same compound, the “mean photoinhibition degree Inh1000” value ([13]; 1000 μM glycine) was 33.5 ± 2%, the “mean weighted deactivation time constant τdeact,UV” value ([12]; UV) was 81 ± 4 ms and the “τdeact,UV (example trace)” value ([12]; UV) was 75.4 ms. For the same compound, the “τdeact,BLUE (example trace)” value [12] was 131.3 ms and the “mean weighted deactivation time constant τdeact,DARK” value [12] was 111 ± 9 ms.
